What was measured:
[1] = molecular target: T1, JAK3 (Homo sapiens, UniProt P52333); assay: JAK3 inhibition assay (radiometric 33P filter assay); assay type: biochemical; details: 1 μM poly(Glu)4Tyr, 5 μM ATP, 1 nM JAK3, 25° C.; read-out: JAK3 inhibition data (Ki)
T1 sequence (P52333 1-1124): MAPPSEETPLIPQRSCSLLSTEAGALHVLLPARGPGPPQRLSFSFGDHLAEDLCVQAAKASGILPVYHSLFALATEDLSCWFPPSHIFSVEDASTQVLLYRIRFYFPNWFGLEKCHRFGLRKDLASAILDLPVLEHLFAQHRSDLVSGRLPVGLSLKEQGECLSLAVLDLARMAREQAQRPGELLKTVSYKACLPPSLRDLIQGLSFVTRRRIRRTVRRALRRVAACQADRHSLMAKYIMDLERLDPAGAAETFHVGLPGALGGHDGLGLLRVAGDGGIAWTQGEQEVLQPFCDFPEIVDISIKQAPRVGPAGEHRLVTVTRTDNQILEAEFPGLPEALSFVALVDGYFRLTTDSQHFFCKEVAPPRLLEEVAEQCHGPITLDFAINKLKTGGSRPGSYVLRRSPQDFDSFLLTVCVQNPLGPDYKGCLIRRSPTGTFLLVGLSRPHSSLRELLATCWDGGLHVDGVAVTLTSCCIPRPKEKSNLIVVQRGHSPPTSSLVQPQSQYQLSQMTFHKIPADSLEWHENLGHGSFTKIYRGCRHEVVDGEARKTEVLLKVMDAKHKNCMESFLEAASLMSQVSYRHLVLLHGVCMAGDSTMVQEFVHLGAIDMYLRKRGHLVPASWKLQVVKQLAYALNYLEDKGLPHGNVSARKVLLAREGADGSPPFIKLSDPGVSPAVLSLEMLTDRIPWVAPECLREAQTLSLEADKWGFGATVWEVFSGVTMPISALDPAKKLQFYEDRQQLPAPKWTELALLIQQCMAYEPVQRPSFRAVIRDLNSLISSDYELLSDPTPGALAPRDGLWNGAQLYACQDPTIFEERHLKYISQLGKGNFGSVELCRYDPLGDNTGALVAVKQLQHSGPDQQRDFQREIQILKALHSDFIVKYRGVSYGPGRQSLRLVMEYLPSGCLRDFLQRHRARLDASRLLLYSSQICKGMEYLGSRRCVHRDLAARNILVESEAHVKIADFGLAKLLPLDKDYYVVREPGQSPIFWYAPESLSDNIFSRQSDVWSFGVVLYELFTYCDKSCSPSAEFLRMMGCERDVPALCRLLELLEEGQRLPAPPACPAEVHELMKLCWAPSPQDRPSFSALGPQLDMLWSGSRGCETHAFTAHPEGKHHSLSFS
In short: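 Final conditions were 1 nM JAK3, 5 μM ATP (200 uCi/μmole) and 1 μM poly(Glu)4Tyr in 100 mM HEPES pH 7.4, 10 mM MgCl2, 25 mM NaCl, 1 mM DTT and 0.01% BSA. After 20 min at 25 °C the reaction was stopped with TCA. 33P incorporation was counted after glass-fibre filtration.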

[2] = molecular target: JAK-2 enzyme (Homo sapiens, UniProt O60674); assay: JAK2 inhibition assay (radiometric 33P filter assay); assay type: biochemical; details: 15 μM poly(Glu)4Tyr, 12 μM ATP; read-out: JAK2 inhibition data (Ki)
JAK-2 enzyme, sequence (O60674 whole entry, species assumed): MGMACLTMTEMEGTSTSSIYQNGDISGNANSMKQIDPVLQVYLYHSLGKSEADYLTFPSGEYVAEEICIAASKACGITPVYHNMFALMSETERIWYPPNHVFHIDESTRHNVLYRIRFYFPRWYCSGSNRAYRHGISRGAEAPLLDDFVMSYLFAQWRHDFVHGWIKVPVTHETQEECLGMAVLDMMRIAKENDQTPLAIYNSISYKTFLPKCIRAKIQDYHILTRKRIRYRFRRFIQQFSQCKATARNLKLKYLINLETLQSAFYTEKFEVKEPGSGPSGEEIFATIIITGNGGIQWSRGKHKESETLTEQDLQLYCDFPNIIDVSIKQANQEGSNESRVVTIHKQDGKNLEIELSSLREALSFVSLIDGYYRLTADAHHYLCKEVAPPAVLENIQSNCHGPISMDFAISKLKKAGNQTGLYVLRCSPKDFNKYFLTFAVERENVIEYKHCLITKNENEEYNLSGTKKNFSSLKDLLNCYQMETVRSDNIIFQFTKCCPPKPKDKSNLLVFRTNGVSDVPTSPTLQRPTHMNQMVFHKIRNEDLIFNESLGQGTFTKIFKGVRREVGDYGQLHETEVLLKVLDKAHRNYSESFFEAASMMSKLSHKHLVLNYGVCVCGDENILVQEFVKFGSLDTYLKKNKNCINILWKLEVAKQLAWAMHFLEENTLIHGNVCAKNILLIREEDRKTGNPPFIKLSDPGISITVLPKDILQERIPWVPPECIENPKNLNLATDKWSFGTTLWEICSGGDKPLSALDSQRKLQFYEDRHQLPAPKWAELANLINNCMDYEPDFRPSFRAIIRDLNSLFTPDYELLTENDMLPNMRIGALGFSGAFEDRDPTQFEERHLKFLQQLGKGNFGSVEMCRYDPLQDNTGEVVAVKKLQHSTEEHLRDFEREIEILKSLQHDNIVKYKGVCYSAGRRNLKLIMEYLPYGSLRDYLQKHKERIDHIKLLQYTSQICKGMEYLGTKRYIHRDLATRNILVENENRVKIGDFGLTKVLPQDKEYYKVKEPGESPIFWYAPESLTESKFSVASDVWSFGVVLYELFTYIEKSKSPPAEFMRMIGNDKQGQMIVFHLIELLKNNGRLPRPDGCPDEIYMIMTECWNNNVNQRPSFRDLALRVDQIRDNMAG
In short: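 JAK-2 enzyme in 100 mM HEPES pH 7.4, 1 mM DTT, 10 mM MgCl2, 25 mM NaCl, 0.01% BSA, with final 12 μM [33P]ATP and 15 μM poly(Glu)4Tyr. Reactions ran 20 min at 25 °C and were stopped with TCA. 33P incorporation was counted after glass-fibre filtration.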

Ki [1]	Ki [2]	SMILES
< 0.05 µM	< 0.05 µM	CC(=O)N1[C@H](C)CN(c2cc(-n3nc(Nc4ccc(NC(=O)Nc5c(F)cccc5F)cc4)nc3N)ncn2)C[C@@H]1C [Compound 73]
0.05 to 0.5 µM	0.05 to 0.5 µM	CCOC(=O)N1CCN(c2ccc(Nc3nc(N)n(-c4ccnc(N5CCCN(C(=O)OCC)CC5)c4)n3)cc2)CC1 [Compound 149]
< 0.05 µM	< 0.05 µM	CCOC(=O)N1CCN(c2ccc(Nc3nc(N)n(-c4ccnc(N5C[C@@H](C)N(C(C)=O)[C@@H](C)C5)c4)n3)cc2)CC1 [Compound 113]
